Measurements published in ChEMBL document CHEMBL5523725, “Fragment-Based Anti-inflammatory Agent Design and Target Identification: Discovery of AF-45 as an IRAK4 Inhibitor to Treat Ulcerative Colitis and Acute Lung Injury” (J Med Chem, 2024).
Calls of active or inactive are those of the source. The rule behind the calls is not given here.

Key:
RAW264.7 = assay: Antiinflammatory activity in LPS-induced mouse RAW264.7 cells assessed as inhibition of IL-6 release at 10 uM pretreated for 30 mins followed by LPS stimulation and measured after 24 hrs by ELISA relative to control; type: functional; settings: time 24.5 hrs
[1] = Cytotoxicity against mouse RAW264.7 cells assessed as cell viability by MTT assay; type: toxicity, cell-based; design: concentration or dose not given beside the values; settings: read-out: Activity
[2] = molecular target: T1, Lymphocyte antigen 96 (Mus musculus) (UniProt Q9JHF9); assay: Thermal stabilization of MD2 in mouse RAW264.7 cells assessed as reduction in decomposition at 10 uM at 45 to 51 degreeC measured after 4 hrs by CETSA; type: cell-based
T1 sequence (whole entry): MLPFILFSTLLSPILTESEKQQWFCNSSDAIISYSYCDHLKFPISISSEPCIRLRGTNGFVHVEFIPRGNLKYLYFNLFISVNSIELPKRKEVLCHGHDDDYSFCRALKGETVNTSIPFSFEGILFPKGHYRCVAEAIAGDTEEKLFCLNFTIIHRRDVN

Mus musculus [3] = assay: Antiinflammatory activity in LPS induced C57BL/6 mouse model of acute lung injury assessed as inhibition of IL-6 release in serum at 20 mg/kg, ip preadministered for 30 mins followed by LPS administration and measured after 6 hrs by ELISA; type: functional, organism-based; settings: time 6.5 hrs
Mus musculus [4] = assay: Antiinflammatory activity in LPS induced C57BL/6 mouse model of acute lung injury assessed as inhibition of TNFalpha release in serum at 20 mg/kg, ip preadministered for 30 mins followed by LPS administration and measured after 6 hrs by ELISA; type: functional, organism-based; settings: time 6.5 hrs
Mus musculus [5] = assay: Antiinflammatory activity in LPS induced C57BL/6 mouse model of acute lung injury assessed as inhibition of IL-6 release in BALF at 20 mg/kg, ip preadministered for 30 mins followed by LPS administration and measured after 6 hrs by ELISA; type: functional, organism-based; settings: time 6.5 hrs
Mus musculus [6] = assay: Antiinflammatory activity in LPS induced C57BL/6 mouse model of acute lung injury assessed as inhibition of TNFalpha release in BALF at 20 mg/kg, ip preadministered for 30 mins followed by LPS administration and measured after 6 hrs by ELISA; type: functional, organism-based; settings: time 6.5 hrs
Mus musculus [7] = assay: Antiinflammatory activity in LPS induced C57BL/6 mouse model of acute lung injury assessed as reduction in spleen over activation at 20 mg/kg, ip preadministered for 30 mins followed by LPS administration and measured after 6 hrs by H and E staining based analysis; type: functional, organism-based; settings: time 6.5 hrs
Mus musculus [8] = assay: Antiinflammatory activity in LPS induced C57BL/6 mouse model of acute lung injury assessed as reduction in white pulp fusion at 20 mg/kg, ip preadministered for 30 mins followed by LPS administration and measured after 6 hrs by H and E staining based analysis; type: functional, organism-based; settings: time 6.5 hrs
Mus musculus [9] = assay: Antiinflammatory activity in LPS induced C57BL/6 mouse model of acute lung injury assessed as reduction in macrophage infiltration in lung at 20 mg/kg, ip preadministered for 30 mins followed by LPS administration and measured after 6 hrs by F4/80 labeling based immunohistochemical analysis; type: functional, organism-based; settings: time 6.5 hrs
Mus musculus [10] = assay: Antiinflammatory activity in LPS induced C57BL/6 mouse model of acute lung injury assessed as reduction in over activation of spleen at 20 mg/kg, ip preadministered for 30 mins followed by LPS administration and measured after 6 hrs by F4/80 labeling based immunohistochemical analysis; type: functional, organism-based; settings: time 6.5 hrs
Mus musculus [11] = assay: Antiinflammatory activity in LPS induced C57BL/6 mouse model of acute lung injury assessed as reduction in number of macrophages in spleen at 20 mg/kg, ip preadministered for 30 mins followed by LPS administration and measured after 6 hrs by F4/80 labeling based immunohistochemical analysis; type: functional, organism-based; settings: time 6.5 hrs
Mus musculus [12] = assay: Anti-colitis activity in male C57BL/6 mouse model of DSS-induced ulcerative colitis assessed as colon length at 100 mg/kg, po administered for 11 days with subsequent administration of DSS for 8 days (reference value: 5.2 cm); type: functional; settings: time 11 day
Mus musculus [13] = assay: Antiinflammatory activity in male C57BL/6 mouse model of DSS-induced ulcerative colitis assessed as reduction in spleen to body weight ratio at 100 mg/kg, po administered for 11 days with subsequent administration of DSS for 8 days; type: functional, organism-based; settings: time 11.0 day
Mus musculus [14] = assay: Antiinflammatory activity in male C57BL/6 mouse model of DSS-induced ulcerative colitis assessed as reduction in colonic structure destruction at 100 mg/kg, po administered for 11 days with subsequent administration of DSS for 8 days by H and E staining based analysis; type: functional, organism-based; settings: time 11.0 day
Mus musculus [15] = assay: Antiinflammatory activity in male C57BL/6 mouse model of DSS-induced ulcerative colitis assessed as preservation of goblet cells at 100 mg/kg, po administered for 11 days with subsequent administration of DSS for 8 days by H and E staining based analysis; type: functional, organism-based; settings: time 11.0 day
Mus musculus [16] = assay: Antiinflammatory activity in male C57BL/6 mouse model of DSS-induced ulcerative colitis assessed as restoration of protein status at 100 mg/kg, po administered for 11 days with subsequent administration of DSS for 8 days by H and E staining based analysis; type: functional, organism-based; settings: time 11.0 day
Mus musculus [17] = assay: Antiinflammatory activity in male C57BL/6 mouse model of DSS-induced ulcerative colitis assessed as reduction in macrophage infiltration in colon at 100 mg/kg, po administered for 11 days with subsequent administration of DSS for 8 days by F4/80 labeling based immunohistochemistry analysis; type: functional, organism-based; settings: time 11.0 day
Mus musculus [18] = assay: Antiinflammatory activity in male C57BL/6 mouse model of DSS-induced ulcerative colitis assessed as reduction in macrophage infiltration in spleen at 100 mg/kg, po administered for 11 days with subsequent administration of DSS for 8 days by F4/80 labeling based immunohistochemistry analysis; type: functional, organism-based; settings: time 11.0 day

Compound | inhibition at 10 µM (RAW264.7) [%] | viability [1] [%] | also measured
COc1cc2ncnc(Oc3cccc(NC(=O)O[C@H]4C[C@@H](N)C4)c3)c2cc1OC | 46.9 | 106 | –
N[C@H]1CC[C@@H](Oc2ncnc3cc(Cl)ccc23)CC1 | 53.1 | 98.8 | –
COc1ccc(C(=O)/C=C/c2cccc(OC)c2OC)cc1 | – | – | Activity [2]: Active
C[C@@H]1C[C@H]2[C@@H]3CCC4=CC(=O)C=C[C@]4(C)[C@@]3(F)[C@@H](O)C[C@]2(C)[C@@]1(O)C(=O)CO | – | – | Activity (Mus musculus [3]): Active; Activity (Mus musculus [4]): Active; Activity (Mus musculus [5]): Active; Activity (Mus musculus [6]): Active; Activity (Mus musculus [7]): Active; Activity (Mus musculus [8]): Active; Activity (Mus musculus [9]): Active; Activity (Mus musculus [10]): inactive; Activity (Mus musculus [11]): inactive
COc1cc2ncnc(N[C@H]3CC[C@@H](NC(=O)c4ccc(C)cc4)CC3)c2cc1OC | 42.3 | 97.8 | –
COc1cc2ncnc(N[C@H]3CC[C@@H](NCCO)CC3)c2cc1OC | 10.6 | 99.7 | –
N[C@H]1CC[C@@H](Oc2ncnc3ccccc23)CC1 | 76.8 | 103 | –
COc1cc2ncnc(N[C@H]3CC[C@@H](NC(=O)c4ccc(F)cc4)CC3)c2cc1OC | 39.9 | 102 | –
COc1cc2ncnc(NCCc3cccs3)c2cc1OC | 16.1 | 88.1 | –
COc1cc2ncnc(Oc3cccc(NC(=O)N[C@H]4CC[C@@H](NS(=O)(=O)c5ccccc5)CC4)c3)c2cc1OC | 16 | 112 | –
COc1cc2ncnc(O[C@H]3CC[C@@H](N)CC3)c2cc1OC | 75.8 | 88.9 | –
COc1cc2c(N[C@H]3CC[C@@H](N)CC3)ncnc2cc1OCc1ccccc1 | 88.6 | 86.7 | –
CCN1CCN(CCOc2ncnc3cc(OC)c(OC)cc23)CC1 | 40 | 90.1 | –
COc1cc2ncnc(Oc3cccc(NC(=O)N[C@H]4CC[C@@H](N)CC4)c3)c2cc1OC | 77.3 | 91.5 | –
COc1cc2ncnc(N[C@H]3CC[C@@H](N)CC3)c2cc1OC | 83.7 | 91.1 | –
N[C@H]1C[C@@H](OC(=O)c2nn(-c3ccccc3)ccc2=O)C1 | 33.2 | 89 | –
COc1cc2ncnc(Oc3cccc(NC(=O)N[C@H]4CC[C@@H](NC(=O)c5cccc(F)c5)CC4)c3)c2cc1OC | 45.4 | 121 | –
CN[C@H]1CC[C@@H](Nc2ncnc3cc(OC)c(OC)cc23)CC1 | – | 98.2 | inhibition (RAW264.7): inactive

Compound | inhibition at 10 µM (RAW264.7) [%] | viability [1] [%] | also measured
N[C@H]1CC[C@@H](OC(=O)c2nn(-c3ccccc3)ccc2=O)CC1 | – | 107 | inhibition (RAW264.7): inactive
COc1cc2ncnc(N[C@H]3CC[C@@H](NCCCN(C)C)CC3)c2cc1OC | 11.1 | 96.5 | –
COCCOc1cc2ncnc(O[C@H]3CC[C@@H](N)CC3)c2cc1OCCOC | 52.7 | 98.6 | –
Cn1c(CNC(=O)O[C@H]2CC[C@@H](N)CC2)nc2ccccc21 | 52.8 | 90.1 | –
COc1cc2ncnc(Oc3cccc(NC(=O)N[C@H]4CC[C@@H](NC(=O)c5ccc(F)cc5)CC4)c3)c2cc1OC | 52.2 | 123 | –
COc1cc2ncnc(Oc3cccc(NC(=O)N[C@H]4CC[C@@H](NC(=O)CCC5CCCC5)CC4)c3)c2cc1OC | 52.9 | 117 | –
COc1cc2ncnc(Oc3cccc(NC(=O)N[C@H]4CC[C@@H](NC(=O)c5ccc(C)cc5)CC4)c3)c2cc1OC | 72.7 | 124 | –
COc1cc2ncnc(N[C@H]3CC[C@H](N)CC3)c2cc1OC | 64.6 | 108 | –
Cn1c(CNC(=O)O[C@H]2C[C@@H](N)C2)nc2ccccc21 | 44.7 | 97.1 | –
COc1cc2ncnc(Oc3cccc(NC(=O)N[C@H]4CC[C@@H](NC(=O)c5ccc(F)cc5Cl)CC4)c3)c2cc1OC | 9.4 | 130 | –
COc1cc2nc(Cl)nc(O[C@H]3CC[C@@H](N)CC3)c2cc1OC | 34.3 | 105 | –
COc1cc2ncnc(O[C@H]3CC[C@H](N)CC3)c2cc1OC | 57.4 | 93.7 | –
COc1cc2ncnc(Oc3cccc(NC(=O)O[C@H]4CC[C@@H](N)CC4)c3)c2cc1OC | 73.4 | 96.5 | –
COc1cc2ncnc(Oc3cccc(NC(=O)N[C@H]4CC[C@@H](NC(=O)OC(C)(C)C)CC4)c3)c2cc1OC | 2.1 | 92.1 | –
COc1cc2ncnc(Oc3cccc(NC(=O)N[C@H]4CC[C@@H](NC(=O)c5ccccn5)CC4)c3)c2cc1OC | 45.4 | 116 | –
Nc1ccc(O)c(C(=O)O)c1 [MESALAMINE] | – | – | Activity (Mus musculus [12]): 6 cm; Activity (Mus musculus [13]): Active; Activity (Mus musculus [14]): Active; Activity (Mus musculus [15]): Active; Activity (Mus musculus [16]): Active; Activity (Mus musculus [17]): Active; Activity (Mus musculus [18]): Active
COc1cc2ncnc(N[C@H]3CC[C@@H](NS(=O)(=O)c4ccc(C)cc4)CC3)c2cc1OC | 45.4 | 104 | –
